Assay in all cases: relative viability (nuclei count vs DMSO), 5 days (fraction); higher = more cells survive
Compound in the assay “Tivantinib + Linsitinib”: O=C1NC(=O)[C@@H](c2cn3c4c(cccc24)CCC3)[C@@H]1c1c[nH]c2ccccc12 [Tivantinib] + C[C@]1(O)C[C@@H](c2nc(-c3ccc4ccc(-c5ccccc5)nc4c3)c3c(N)nccn32)C1 [Linsitinib] (partner 1 µM)
In a few lines: (§1)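 Lung cancer cell lines in 1536-well plates were dosed by pin tool the day after seeding, either with one drug alone or with a fixed anchor-drug dose plus five library-drug doses (not always all listed) in √10 steps. After 5 days, cells were fixed and their nuclei stained in one step (final 0.05% Triton X-100, 1% formaldehyde, 1 ug/ml Hoechst), then counted on 4× images. Relative viability is the nuclei count in treated wells divided by that in vehicle wells. Values are medians of duplicate plates.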

Compound in the assay “Crenolanib + Foretinib”: CC1(COc2ccc3c(c2)ncn3-c2ccc3cccc(N4CCC(N)CC4)c3n2)COC1 [Crenolanib] + COc1cc2c(Oc3ccc(NC(=O)C4(C(=O)Nc5ccc(F)cc5)CC4)cc3F)ccnc2cc1OCCCN1CCOCC1 [Foretinib] (partner 0.25 µM)
In a few lines: as §1

Compound in the assay “Tivantinib + Pictilisib”: O=C1NC(=O)[C@@H](c2cn3c4c(cccc24)CCC3)[C@@H]1c1c[nH]c2ccccc12 [Tivantinib] + CS(=O)(=O)N1CCN(Cc2cc3nc(-c4cccc5[nH]ncc45)nc(N4CCOCC4)c3s2)CC1 [Pictilisib] (partner 1 µM)
The method, boiled down: as §1

Compound in the assay “Tivantinib + Crizotinib”: O=C1NC(=O)[C@@H](c2cn3c4c(cccc24)CCC3)[C@@H]1c1c[nH]c2ccccc12 [Tivantinib] + C[C@@H](Oc1cc(-c2cnn(C3CCNCC3)c2)cnc1N)c1c(Cl)ccc(F)c1Cl [Crizotinib] (partner 1 µM)
The method, boiled down:
as §1

Among the data in the supplement of paper PMC10307832 are relative viability values, retold here.

For UMC-11, the relative viability in the assay with Tivantinib + Linsitinib (first compound 0.01 µM) came to 0.974; with Tivantinib + Linsitinib (first compound 0.03162 µM) it was 0.979; in the assay with Tivantinib + Linsitinib (first compound 0.1 µM), 0.943; with Tivantinib + Linsitinib (first compound 0.3162 µM), 1; in the assay with Crenolanib + Foretinib (first compound 0.01 µM) it was 1.07; in the assay with Crenolanib + Foretinib (first compound 0.03162 µM), 1.11. The relative viability with Crenolanib + Foretinib (first compound 0.1 µM) is 0.95; in the assay with Crenolanib + Foretinib (first compound 0.3162 µM), 1.21; with Crenolanib + Foretinib (first compound 1 µM), 0.947; with Tivantinib + Pictilisib (first compound 0.01 µM) it was 0.733; with Tivantinib + Pictilisib (first compound 0.03162 µM) it was 0.423; in the assay with Tivantinib + Pictilisib (first compound 0.1 µM), 0.75. Besides, the relative viability with Tivantinib + Pictilisib (first compound 0.3162 µM) was found to be 0.954; with Tivantinib + Crizotinib (first compound 0.01 µM), 0.662; with Tivantinib + Crizotinib (first compound 0.03162 µM), 0.601; in the assay with Tivantinib + Crizotinib (first compound 0.1 µM), 0.637; with Tivantinib + Crizotinib (first compound 0.3162 µM), 0.531.
